In publication PMC10813692 (2024):

Legend:
[1] = system: LxB2 (RNA, aptamer) GGGCAACUCCAAGCUAGAUCUACCGGUGUGUAACGGAAGCACAAAGGUGCCUCCUACAGCAGGUCUUCUACUGGCUUCUACUGAUACGCUAAAAUGGCUAGCAAAGGAGAAGAACUUUUCACU; experiment: elution from immobilised Capture-ON; conditions: 0.25 mM K+, 20 mM Na+, 5 mM Mg2+, 1x CSB (40 mM HEPES pH 7.4), DNA Capture-ON displaced
[2] = system: LxB1 (RNA, aptamer) GGGCAACUCCAAGCUAGAUCUACCGGUGUGUAACGGAAGCACAAAGGUGCCUCCUACAGCAGGUCUUCUACUGGCUUCUACUGAUACACUAAAAUGGCUAGCAAAGGAGAAGAACUUUUCACU; experiment: elution from immobilised Capture-ON; conditions: 0.25 mM K+, 20 mM Na+, 5 mM Mg2+, 1x CSB (40 mM HEPES pH 7.4), DNA Capture-ON displaced
[3] = system: LxCsh (RNA, aptamer) GGGUUUGGGUAGUGCGAUUCGCACUGAAUGCCGCGUAGGCUUCGCUACUGGCUUCUACUACGUACCCAAACCC; experiment: lateral flow assay, Capture-ON displacement; conditions: 0.25 mM K+, 20 mM Na+, 5 mM Mg2+, 1x CSB (40 mM HEPES pH 7.4), room temperature, 6FAM Capture-ON displaced
[4] = system: LxC (RNA, aptamer) GGGCAACUCCAAGCUAGAUCUACCGGUUUGGGUAGUGCGAUUCGCACUGAAUGCCGCGUAGGCUUCGCUACUGGCUUCUACUACGUACCCAAAAUGGCUAGCAAAGGAGAAGAACUUUUCACU; experiment: elution from immobilised Capture-ON; conditions: 0.25 mM K+, 20 mM Na+, 5 mM Mg2+, 1x CSB (40 mM HEPES pH 7.4), DNA Capture-ON displaced
[5] = system: LxD (RNA, aptamer) GGGCAACUCCAAGCUAGAUCUACCGGUCUAGUGCCUCAACUAGCCGAACCGUGGUCGUCUUCAUGCCUACUGGCUUCUACGAGAUAAAUAAAAUGGCUAGCAAAGGAGAAGAACUUUUCACU; experiment: elution from immobilised Capture-ON; conditions: 0.25 mM K+, 20 mM Na+, 5 mM Mg2+, 1x CSB (40 mM HEPES pH 7.4), DNA Capture-ON displaced
[6] = system: M14 (RNA, aptamer) GGGCGCACUGAAUGCCGCGUAGGCUUCGCUACUGGCUUCUACUACGUAUAGUGCGCCC; experiment: ITC; conditions: 0.25 mM K+, 20 mM Na+, 5 mM Mg2+; 1x CSB (40 mM HEPES pH 7.4), 25 °C; 30 µM RNA, 500 µM LFX in syringe
[7] = system: LxCsh (RNA, aptamer) GGGUUUGGGUAGUGCGAUUCGCACUGAAUGCCGCGUAGGCUUCGCUACUGGCUUCUACUACGUACCCAAACCC; experiment: ITC; conditions: 0.25 mM K+, 20 mM Na+, 5 mM Mg2+; 1x CSB (40 mM HEPES pH 7.4), 25 °C; 30 µM RNA, 500 µM LFX; one-site model
[8] = system: LxF (RNA, aptamer) GGGCAACUCCAAGCUAGAUCUACCGGUGCAGGUCUGGGAACUCGUUCCCGGCUCCAGCUGGAUUCUUCUACUGGCUUCUAGCCCGACCGGAAAAUGGCUAGCAAAGGAGAAGAACUUUUCACU; experiment: elution from immobilised Capture-ON; conditions: 0.25 mM K+, 20 mM Na+, 5 mM Mg2+; 1x CSB (40 mM HEPES pH 7.4); 1 mM LFX; DNA Capture-ON displaced
[9] = system: LxA2 (RNA, aptamer) GGGCAACUCCAAGCUAGAUCUACCGGUUUUUUCUGGCGGCUUAAAAACCAGGAAAGGUGGAGACUUCUACUGGCUUCUAUCCAGCCGGUAAAAUGGCUAGCAAAGGAGAAGAACUUUUCACU; experiment: elution from immobilised Capture-ON; conditions: 0.25 mM K+, 20 mM Na+, 5 mM Mg2+; 1x CSB (40 mM HEPES pH 7.4); 1 mM LFX; DNA Capture-ON displaced
[10] = system: LxE (RNA, aptamer) GGGCAACUCCAAGCUAGAUCUACCGGUCGUAGUGGACCUGUUUAGGUUUGCAUACGUUAGAUGUCUUCUACUGGCUUCUAAAUCGAACCGAAAAUGGCUAGCAAAGGAGAAGAACUUUUCACU; experiment: elution from immobilised Capture-ON; conditions: 0.25 mM K+, 20 mM Na+, 5 mM Mg2+; 1x CSB (40 mM HEPES pH 7.4); 1 mM LFX; DNA Capture-ON displaced
[11] = system: LxC (RNA, aptamer) GGGCAACUCCAAGCUAGAUCUACCGGUUUGGGUAGUGCGAUUCGCACUGAAUGCCGCGUAGGCUUCGCUACUGGCUUCUACUACGUACCCAAAAUGGCUAGCAAAGGAGAAGAACUUUUCACU; experiment: ITC; conditions: 0.25 mM K+, 20 mM Na+, 5 mM Mg2+; 1x CSB (40 mM HEPES pH 7.4), 25 °C; 30 µM RNA, 500 µM LFX; one-site model
[12] = system: M8 (RNA, aptamer) GGGUUUGGGUAGUCGAUUCGACUGAAUGCCGCGUAGGCUUCGCUACUGGCUUCUACUACGUACCCAAACCC; experiment: ITC; conditions: 0.25 mM K+, 20 mM Na+, 5 mM Mg2+; 1x CSB (40 mM HEPES pH 7.4), 25 °C; 30 µM RNA, 500 µM LFX; one-site model
[13] = system: M7 (RNA, aptamer) GGGUUUGGGUAUGAAUGCCGCGUAGGCUUCGCUACUGGCUUCUACUACGUACCCAAACCC; experiment: ITC; conditions: 0.25 mM K+, 20 mM Na+, 5 mM Mg2+; 1x CSB (40 mM HEPES pH 7.4), 25 °C; 30 µM RNA, 500 µM LFX in syringe
[14] = system: M2 (RNA, aptamer) GGGUUUGCGUAGUGCGAUUCGCACUGAAUGCCGCGUAGGCUUCGCUACUGGCUUCUACUACGUACGCAAACCC; experiment: ITC; conditions: 0.25 mM K+, 20 mM Na+, 5 mM Mg2+; 1x CSB (40 mM HEPES pH 7.4), 25 °C; 30 µM RNA, 500 µM LFX; one-site model
[15] = system: M1 (RNA, aptamer) GGGUAUGGGUAGUGCGAUUCGCACUGAAUGCCGCGUAGGCUUCGCUACUGGCUUCUACUACGUACCCAUACCC; experiment: ITC; conditions: 0.25 mM K+, 20 mM Na+, 5 mM Mg2+; 1x CSB (40 mM HEPES pH 7.4), 25 °C; 30 µM RNA, 500 µM LFX; one-site model
[16] = system: M13 (RNA, aptamer) GGGUUUGGGUAGAAUGCCGCGUAGGCUUCGCUACUGGCUUCUACUACGUACCCAAACCC; experiment: ITC; conditions: 0.25 mM K+, 20 mM Na+, 5 mM Mg2+; 1x CSB (40 mM HEPES pH 7.4), 25 °C; 30 µM RNA, 500 µM LFX in syringe
[17] = system: M3 (RNA, aptamer) GGGUUUGGGUAGUGCGAUUCGCACUGAAGCCGCGUAGGCUUCGCUACUGGCUUCUACUACGUACCCAAACCC; experiment: ITC; conditions: 0.25 mM K+, 20 mM Na+, 5 mM Mg2+; 1x CSB (40 mM HEPES pH 7.4), 25 °C; 30 µM RNA, 500 µM LFX in syringe
[18] = system: M6 (RNA, aptamer) GGGUUUGGGUAGCGAUUCGCUGAAUGCCGCGUAGGCUUCGCUACUGGCUUCUACUACGUACCCAAACCC; experiment: ITC; conditions: 0.25 mM K+, 20 mM Na+, 5 mM Mg2+; 1x CSB (40 mM HEPES pH 7.4), 25 °C; 30 µM RNA, 500 µM LFX in syringe
[19] = system: M4 (RNA, aptamer) GGGUUUGGGUAGUGCGAUUCGCACUGAAUGCCGGUAGGCUUCGCUACUGGCUUCUACUACGUACCCAAACCC; experiment: ITC; conditions: 0.25 mM K+, 20 mM Na+, 5 mM Mg2+; 1x CSB (40 mM HEPES pH 7.4), 25 °C; 30 µM RNA, 500 µM LFX in syringe
[20] = system: M12 (RNA, aptamer) GGGUUUGGGUGAAUGCCGCGUAGGCUUCGCUACUGGCUUCUACUACGUACCCAAACCC; experiment: ITC; conditions: 0.25 mM K+, 20 mM Na+, 5 mM Mg2+; 1x CSB (40 mM HEPES pH 7.4), 25 °C; 30 µM RNA, 500 µM LFX in syringe
[21] = system: LxA1 (RNA, aptamer) GGGCAACUCCAAGCUAGAUCUACCGGUUUUUUCAGGCGGCUUAAAAACCAGGAAAGGUGGAGACUUCUACUGGCUUCUAUCCAGCCGGUAAAAUGGCUAGCAAAGGAGAAGAACUUUUCACU; experiment: elution from immobilised Capture-ON; conditions: 0.25 mM K+, 20 mM Na+, 5 mM Mg2+; 1x CSB (40 mM HEPES pH 7.4); 1 mM LFX; DNA Capture-ON displaced
[22] = system: M11 (RNA, aptamer) GGGUUUGGGUAGUGCGAUUCGCACUGAAUGCUUCGGCUUCUACUACGUACCCAAACCC; experiment: ITC; conditions: 0.25 mM K+, 20 mM Na+, 5 mM Mg2+; 1x CSB (40 mM HEPES pH 7.4), 25 °C; 30 µM RNA, 500 µM LFX in syringe
[23] = system: M9 (RNA, aptamer) GGGUUUGGGUAGUCGUUCGCGACUGAAUGCCGCGUAGGCUUCGCUACUGGCUUCUACUACGUACCCAAACCC; experiment: ITC; conditions: 0.25 mM K+, 20 mM Na+, 5 mM Mg2+; 1x CSB (40 mM HEPES pH 7.4), 25 °C; 30 µM RNA, 500 µM LFX; one-site model
[24] = system: M10 (RNA, aptamer) GGGUUUGGGUAGUGCGAUUCGCACUGAAUGCCGCGUAGUUCGCUACUGGCUUCUACUACGUACCCAAACCC; experiment: ITC; conditions: 0.25 mM K+, 20 mM Na+, 5 mM Mg2+; 1x CSB (40 mM HEPES pH 7.4), 25 °C; 30 µM RNA, 500 µM LFX in syringe
[25] = system: M5 (RNA, aptamer) GGGUUUGGGUAGUUUCGACUGAAUGCCGCGUAGGCUUCGCUACUGGCUUCUACUACGUACCCAAACCC; experiment: ITC; conditions: 0.25 mM K+, 20 mM Na+, 5 mM Mg2+; 1x CSB (40 mM HEPES pH 7.4), 25 °C; 30 µM RNA, 500 µM LFX in syringe

O=C(O)c1cn(C2CC2)c2cc(N3CCNCC3)c(F)cc2c1=O
weak: binding ([1]; 1 mM CFX, LFX/CFX elution ratio 2.1) | binding ([2]; 1 mM CFX, LFX/CFX elution ratio 2.2) | binding ([3]; up to 5000 µM) | binding ([4]; 1 mM CFX, LFX/CFX elution ratio 3.2) | binding ([5]; 1 mM CFX, LFX/CFX elution ratio 2.6)

C[C@H]1COc2c(N3CCN(C)CC3)c(F)cc3c(=O)c(C(=O)O)cn1c23
47.3%: fraction eluted ([5]; 1 mM LFX)
3 ± 3 µM: Kd [23]
6 µM: Kd [7] | Kd [11]
6 ± 3 µM: Kd [12]
27.4%: fraction eluted ([4]; 1 mM LFX)
no: binding [6] | binding [13] | binding [16] | binding [17] | binding [18] | binding [19] | binding [20] | binding [22] | binding [24] | binding [25]
5 ± 6 µM: Kd [15]
yes: binding [8] | binding [9] | binding [10] | binding ([1]; 1 mM LFX) | binding ([2]; 1 mM LFX) | binding ([3]; signal at 100 µM and above) | binding [21]
4 ± 1 µM: Kd [14]
